Measured values reported in the RepoRT retention time repository.

Assay: Thermo Scientific Acclaim RSLC 120 C18, 100 × 2.1 mm, 2.2 µm, 30 °C, 0.2 to 0.48 mL/min, estimated dead time 1.1 min; A: 90% water + 10% methanol + 5 mM ammonium acetate; B: methanol + 5 mM ammonium acetate; gradient (min/%B) 0.1/1 3/39 14/99.9 16/99.9
Conditions: stereoisomer not certain

| Structure (SMILES) | LC retention time [min] |
| --- | --- |
| CNC(=C[N+](=O)[O-])NCCSCc1ccc(C[N+](C)(C)[O-])o1 | 3.98 |
| Cc1cc(C)cc(C(=O)N(NC(=O)c2ccc3c(c2C)CCCO3)C(C)(C)C)c1 | 9.91 |
| O=c1[nH]cnc2[nH]ncc12 | 3.04 |
| CCOC1OC(C(=O)O)C(O)C(O)C1O (stereo not given) | 1.35 |
| COC(=O)Nc1nc2ccccc2[nH]1 | 5.8 |
| CC(C)(C)Nc1nc(N)[nH]c(=O)n1 | 5.42 |
| CCC1OC(=O)C(C)C(OC2CC(C)(OC)C(O)C(C)O2)C(C)C(OC2OC(C)CC(N(C)C)C2O)C(C)(O)CC(C)C(=NOCOCCOC)C(C)C(O)C1(C)O (stereo not given) | 11.5 |
| Cc1ccc(C)c(OCCCC(C)(C)C(=O)O)c1 | 10.9 |
| CC1(c2ccc(Oc3ccccc3)cc2)OC(=O)N(Nc2ccccc2)C1=O (stereo not given) | 11 |
| CC(=O)Nc1cc(S(=O)(=O)O)cc2cc(S(=O)(=O)O)c(N=Nc3ccccc3)c(O)c12 | 4.56 |
| CC(=O)Nc1ccc(S(=O)(=O)Nc2ncccn2)cc1 | 3.76 |
| CCC(C)c1cc([N+](=O)[O-])cc([N+](=O)[O-])c1O (stereo not given) | 7.92 |
| COc1cc(OC)nc(NC(=O)NS(=O)(=O)c2ncccc2C(=O)N(C)C)n1 | 4.32 |
| O=C1NS(=O)(=O)c2ccccc21 | 3.09 |
| CCCCCC(C)N (stereo not given) | 4.41 |
| CNC(=O)ON=C(C)C(C)S(C)(=O)=O (stereo not given) | 3.67 |
| NC(=O)c1ncn(C2OC(CO)C(O)C2O)n1 (stereo not given) | 1.46 |
| CCOC(=O)c1cn2nc(OP(=S)(OCC)OCC)cc2nc1C | 11.4 |
| COc1ccc(Oc2ccc(NC(=O)N(C)C)cc2)cc1 | 8.39 |
| COCCN(C(=O)C(=O)O)c1c(C)cccc1C | 6.07 |
| CCC(C)(CC)c1cc(NC(=O)c2c(OC)cccc2OC)on1 | 9.39 |
| CC12CCC3C(CCC4=C(O)C(=O)CCC43C)C1CCC2=O (stereo not given) | 6.61 |
| CC(C)N1C(=O)c2ccccc2NS1(=O)=O | 4.49 |
| CC12CCC3c4ccc(O)cc4CCC3C1CC(O)C2=O (stereo not given) | 8.42 |
| C=C(c1ccc(C(=O)O)cc1)c1cc2c(cc1C)C(C)(C)CCC2(C)C | 14.1 |

| Structure (SMILES) | LC retention time [min] |
| --- | --- |
| CC(C)C(NC(=O)C(CC(=O)O)NC(=O)C(CCCCN)NC(=O)C(N)CCCN=C(N)N)C(=O)NC(Cc1ccc(O)cc1)C(=O)O (stereo not given) | 3.16 |
| Cc1ccc(NS(=O)(=O)N(C)C)cc1 | 7.23 |
| CCCCCc1cc(O)c2c(c1)OC(C)(C)C1CCC(C(=O)O)=CC21 (stereo not given) | 12 |
| COCC(C)N(C(=O)CS(=O)(=O)O)c1c(C)csc1C (stereo not given) | 6.97 |
| O=C1NC(=O)C2CC=CCC12 (stereo not given) | 4.36 |
| COc1ccc2cc(CCC(C)=O)ccc2c1 | 8.54 |
| O=C1NC(=O)C(c2ccccc2)(c2ccccc2)N1 | 8.26 |
| CCOc1cc(CC(=O)NC(CC(C)C)c2ccccc2N2CCCCC2)ccc1C(=O)O (stereo not given) | 12.8 |
| Cc1cn(C2CC(N=[N+]=[N-])C(CO)O2)c(=O)[nH]c1=O (stereo not given) | 5.06 |
| Cc1onc(-c2ccccc2)c1-c1ccc(S(N)(=O)=O)cc1 | 7.46 |
| O=C(O)c1ccccc1 | 2.88 |
| O=C(O)c1ccccc1S | 5.44 |
| CC(C)(C#N)c1cc(Cn2cncn2)cc(C(C)(C)C#N)c1 | 6.38 |
| CC(N)C12CC3CC(CC(C3)C1)C2 (stereo not given) | 3.19 |
| CS(=O)(=O)c1ccc(C(=O)C2C(=O)CCCC2=O)c([N+](=O)[O-])c1 | 2.13 |
| Cc1ccccc1C(=O)Nc1cccc(OC(C)C)c1 | 9.58 |
| CC(C(=O)O)c1cccc(C(=O)c2ccccc2)c1 (stereo not given) | 6.77 |
| COc1cccc(C(=O)NN(C(=O)c2cc(C)cc(C)c2)C(C)(C)C)c1C | 9.55 |
| CCOS(=O)(=O)O | 1.52 |
| CCC(C)C1(CC)C(=O)NC(=O)NC1=O (stereo not given) | 6.83 |
| CN(C)CCC=C1c2ccccc2COc2ccc(CC(=O)O)cc21 | 7.69 |
| NC(=O)c1ccccc1O | 4.83 |
| CC1=C(C(=O)Nc2ccccc2)SCCO1 | 7.42 |
| Nc1nc2c(ncn2CCC(CO)CO)c(=O)[nH]1 | 3.34 |
| CNC(=C[N+](=O)[O-])NCCSCc1ccc(CN(C)C)o1 | 4.67 |

| Structure (SMILES) | LC retention time [min] |
| --- | --- |
| CC1CCCCC1NC(=O)Nc1ccccc1 (stereo not given) | 9.15 |
| CC12CCC3C(CCC4=CC(=O)CCC43C)C1CCC2=O (stereo not given) | 13.1 |
| c1ccc2[nH]c(-c3cscn3)nc2c1 | 6.52 |
| CCCCc1c(C)nc(NCC)[nH]c1=O | 8.39 |
| COc1ccc(C(=O)c2ccccc2O)cc1 | 12.2 |
| CC(C)C1(C)N=C(c2ncccc2C(=O)O)NC1=O (stereo not given) | 3.1 |
| CCNP(=S)(OC)OC(C)=CC(=O)OC(C)C (stereo not given) | 9.75 |
| CCc1cccc(C)c1N(C(=O)CS(=O)(=O)O)C(C)COC (stereo not given) | 8.19 |
| CC(C)(C)NCC(O)c1cc(O)cc(O)c1 (stereo not given) | 3.48 |
| CCNc1nc(NCC)[nH]c(=O)n1 | 5.56 |
| CC1=CC(=O)NS(=O)(=O)O1 | 2.34 |
| CC1CC(=O)CC2CCC3C4CCC(O)C4(C)CCC3C12C (stereo not given) | 14.4 |
| O=C(c1ccc(OCCN2CCCCC2)cc1)c1c(-c2ccc(O)cc2)sc2cc(O)ccc12 | 8.86 |
| COc1cc(S(=O)(=O)O)c(C)cc1N=Nc1c(O)ccc2cc(S(=O)(=O)O)ccc12 | 2.88 |
| CC(=O)NCCCS(=O)(=O)O | 1.46 |
| C=CC(=O)NC(C)(C)CS(=O)(=O)O | 2.5 |
| O=C(O)Cc1cccc2ccccc12 | 5.7 |
| Cc1cc(C)n(-c2nc3ccccc3[nH]2)n1 | 8.22 |
| CCC1(O)CCC2C3CCC4=CC(=O)CCC4C3CCC21C (stereo not given) | 14 |
| CCCC(C)C1(CC)C(=O)NC(=O)NC1=O (stereo not given) | 7.92 |
| CNC(=O)CSP(=S)(OC)OC | 5.25 |
| COc1ccc(-c2ccccc2)cc1NNC(=O)OC(C)C | 9.82 |
| NCC1(CC(=O)O)CCCCC1 | 4.08 |
| CC(C)NCC(O)c1ccc(NS(C)(=O)=O)cc1 (stereo not given) | 3.91 |
| CCCCc1oc2ccc(NS(C)(=O)=O)cc2c1C(=O)c1ccc(OCCCN(CCCC)CCCC)cc1 | 13.3 |
